Experimental data from patent US20220017566A1, “TERPINOID DERIVATIVES AND USES THEREOF” (SICHUAN HAISCO PHARMACEUTICAL CO., LTD., priority 2018, published 2022).
pEC50, pIC50: −log10 of the molar value. Where two headings read alike, the source gives them in different places.

Columns and labels:
[1] = Metabolic stability in human liver microsomes; format: in vitro ADME
Method: (§1) The metabolic stability of test compounds was examined in CD-1 mouse, Sprague Dawley rat, Beagle dog, cynomolgus monkey, and human liver microsomes. Test compound (final concentration 1 μM) was mixed with diluted liver microsomes from each of the 5 species and a small aliquot was taken at 0, 5, 10, 20, 30, and 60 minutes for LC/MS/MS analysis. Intrinsic clearance and half-life were calculated.

[2] = molecular target: T1, CYP2C19 (Homo sapiens, UniProt P33261); assay: CYP450 enzyme inhibition in liver microsomes (cocktail probe incubation); format: in vitro ADME; conditions: species not given, 0.05-50 μM tested
T1 construct: studied in liver microsomes of CD-1 mouse, Sprague Dawley rat, Beagle dog, cynomolgus monkey, and human; from tissue; host or cells: liver microsomes
T1 sequence (P33261 whole entry): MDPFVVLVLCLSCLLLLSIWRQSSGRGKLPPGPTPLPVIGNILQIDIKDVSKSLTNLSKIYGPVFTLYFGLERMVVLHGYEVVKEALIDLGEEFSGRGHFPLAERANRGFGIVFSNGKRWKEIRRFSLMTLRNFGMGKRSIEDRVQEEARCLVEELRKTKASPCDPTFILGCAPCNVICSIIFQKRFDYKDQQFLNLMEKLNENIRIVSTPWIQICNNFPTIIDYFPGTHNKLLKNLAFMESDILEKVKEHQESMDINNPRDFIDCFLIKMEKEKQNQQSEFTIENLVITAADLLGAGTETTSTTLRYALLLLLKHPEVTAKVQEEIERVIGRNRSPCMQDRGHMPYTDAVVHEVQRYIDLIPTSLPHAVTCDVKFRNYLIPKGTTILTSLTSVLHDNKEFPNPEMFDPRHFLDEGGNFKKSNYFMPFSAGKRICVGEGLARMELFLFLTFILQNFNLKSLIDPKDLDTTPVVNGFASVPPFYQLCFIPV
Method: (§2) The inhibition potential of test compounds towards major drug metabolizing CYP450 enzymes was studied in liver microsomes of CD-1 mouse, Sprague Dawley rat, Beagle dog, cynomolgus monkey, and human. The inhibition of CYP1A2, CYP2C9, CYP2C19, CYP2D6, and CYP3A4 was assessed using CYP450 specific probe reactions in a cocktail incubation. Seven concentrations of test compounds (0.05, 0.15, 0.5, 1.5, 5, 15, and 50 μM) were evaluated. In addition, known inhibitors for each probe reaction were included as positive controls and incubated at a single concentration above their respective IC50.

[3] = molecular target: T2, CYP3A4 (Homo sapiens, UniProt P08684); assay: as above; format: in vitro ADME; conditions: species not given, 0.05-50 μM tested
T2 construct: studied in liver microsomes of CD-1 mouse, Sprague Dawley rat, Beagle dog, cynomolgus monkey, and human; from tissue; host or cells: liver microsomes
T2 sequence (P08684 whole entry): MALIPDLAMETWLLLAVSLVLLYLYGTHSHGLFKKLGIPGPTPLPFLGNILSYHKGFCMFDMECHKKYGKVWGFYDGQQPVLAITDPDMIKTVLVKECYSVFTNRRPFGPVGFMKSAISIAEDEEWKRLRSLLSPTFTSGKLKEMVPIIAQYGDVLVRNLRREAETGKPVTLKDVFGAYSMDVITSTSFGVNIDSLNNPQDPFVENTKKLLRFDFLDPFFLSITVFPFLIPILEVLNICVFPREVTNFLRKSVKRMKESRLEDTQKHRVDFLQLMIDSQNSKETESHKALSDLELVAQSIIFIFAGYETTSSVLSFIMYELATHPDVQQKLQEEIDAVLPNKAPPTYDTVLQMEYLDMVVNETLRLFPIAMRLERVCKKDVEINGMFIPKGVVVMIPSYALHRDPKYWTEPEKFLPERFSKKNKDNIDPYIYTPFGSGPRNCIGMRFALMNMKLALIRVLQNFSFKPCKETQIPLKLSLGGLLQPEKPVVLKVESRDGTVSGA
Method: as §2

[4] = molecular target: T3, CYP2D6 (Homo sapiens, UniProt P10635); assay: as above; format: in vitro ADME; conditions: species not given, 0.05-50 μM tested
T3 construct: studied in liver microsomes of CD-1 mouse, Sprague Dawley rat, Beagle dog, cynomolgus monkey, and human; from tissue; host or cells: liver microsomes
T3 sequence (P10635 whole entry): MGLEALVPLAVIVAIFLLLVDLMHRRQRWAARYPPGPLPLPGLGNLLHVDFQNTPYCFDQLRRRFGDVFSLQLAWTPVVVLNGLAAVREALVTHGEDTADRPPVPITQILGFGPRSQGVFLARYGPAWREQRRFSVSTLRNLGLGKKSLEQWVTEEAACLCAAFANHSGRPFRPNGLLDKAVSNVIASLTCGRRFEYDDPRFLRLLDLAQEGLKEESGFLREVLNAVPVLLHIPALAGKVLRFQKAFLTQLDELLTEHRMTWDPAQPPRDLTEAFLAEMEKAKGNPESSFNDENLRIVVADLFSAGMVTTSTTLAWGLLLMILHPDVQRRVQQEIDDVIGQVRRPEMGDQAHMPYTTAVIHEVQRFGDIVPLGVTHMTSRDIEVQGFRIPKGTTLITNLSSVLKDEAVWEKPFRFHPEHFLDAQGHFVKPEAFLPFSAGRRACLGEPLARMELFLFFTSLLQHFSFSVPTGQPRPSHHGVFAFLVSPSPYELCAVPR
Method: as §2

[5] = molecular target: T4, CYP1A2 (Homo sapiens, UniProt P05177); assay: as above; format: in vitro ADME; conditions: species not given, 0.05-50 μM tested
T4 construct: studied in liver microsomes of CD-1 mouse, Sprague Dawley rat, Beagle dog, cynomolgus monkey, and human; from tissue; host or cells: liver microsomes
T4 sequence (P05177 1-516): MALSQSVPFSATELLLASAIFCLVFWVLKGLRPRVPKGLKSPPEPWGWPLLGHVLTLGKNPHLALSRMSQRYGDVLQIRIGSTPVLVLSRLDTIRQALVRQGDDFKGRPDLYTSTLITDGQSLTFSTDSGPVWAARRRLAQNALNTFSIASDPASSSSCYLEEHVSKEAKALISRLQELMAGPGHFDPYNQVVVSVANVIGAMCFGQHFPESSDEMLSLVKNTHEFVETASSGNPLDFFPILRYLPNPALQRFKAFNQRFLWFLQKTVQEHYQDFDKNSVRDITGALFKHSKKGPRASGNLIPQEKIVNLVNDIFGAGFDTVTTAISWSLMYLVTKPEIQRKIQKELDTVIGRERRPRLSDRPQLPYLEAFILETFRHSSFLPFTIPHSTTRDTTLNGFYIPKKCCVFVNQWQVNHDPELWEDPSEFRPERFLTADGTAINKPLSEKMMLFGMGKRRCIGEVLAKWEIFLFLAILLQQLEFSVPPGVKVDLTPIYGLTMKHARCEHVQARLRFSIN
Method: as §2

[6] = molecular target: T5, CYP2C9 (Homo sapiens, UniProt P11712); assay: as above; format: in vitro ADME; conditions: species not given, 0.05-50 μM tested
T5 construct: studied in liver microsomes of CD-1 mouse, Sprague Dawley rat, Beagle dog, cynomolgus monkey, and human; from tissue; host or cells: liver microsomes
T5 sequence (P11712 whole entry): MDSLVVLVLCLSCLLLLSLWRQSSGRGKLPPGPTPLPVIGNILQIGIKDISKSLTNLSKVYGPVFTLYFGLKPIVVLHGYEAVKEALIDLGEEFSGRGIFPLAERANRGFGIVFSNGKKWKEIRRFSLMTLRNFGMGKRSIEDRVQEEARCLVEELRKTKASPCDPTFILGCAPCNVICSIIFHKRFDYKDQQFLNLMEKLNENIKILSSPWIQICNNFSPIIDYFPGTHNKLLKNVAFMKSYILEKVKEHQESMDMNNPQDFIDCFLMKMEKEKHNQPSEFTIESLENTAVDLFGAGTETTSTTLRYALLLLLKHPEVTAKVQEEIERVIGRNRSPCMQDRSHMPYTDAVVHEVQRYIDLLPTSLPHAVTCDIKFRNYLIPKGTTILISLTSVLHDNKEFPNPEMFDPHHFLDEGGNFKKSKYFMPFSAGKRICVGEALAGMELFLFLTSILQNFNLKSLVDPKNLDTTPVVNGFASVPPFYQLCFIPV
Method: as §2

[7] = test system: NQO1; assay: NQO1 activity assay in Raw264.7 cell lysates; format: cell-based; conditions: Mus musculus; Raw264.7 cells, 48 hours treatment
Method: Raw264.7 cells were seeded in DMEM+10% FBS in 96-well plates at a density of 10,000 cells per well. 6 hours after plating, cells were treated with DMSO or test compounds (top dose 100 nM, 1:4 serial dilution, 8-point) for 48 hours. NQO1 activity was then detected in cell lysates using NQO1 activity assay kit (Abeam, Cat#ab184867). NQO1 activity was then plotted against compound concentration, and EC50 values were calculated using four-parameter algorithm in Graphpad Prism.

[8] = Metabolic stability in dog liver microsomes; format: in vitro ADME; conditions: Beagle
Method: as §1

[9] = Metabolic stability in monkey liver microsomes; format: in vitro ADME, cynomolgus monkey
Method: as §1

[10] = Metabolic stability in mouse liver microsomes; format: in vitro ADME, CD-1 mouse; conditions: CD-1
Method: as §1

[11] = Pharmacokinetic studies in Sprague Dawley rats (oral gavage and IV); format: in vivo; conditions: rat, male SD rats, plasma; for AUC(0-t): read-out: AUC0-24 h; for bioavailability: oral 5 mg/kg vs IV 1 mg/kg, read-out: Bioavailibility F %
Method: The pharmacokinetics of test compounds was evaluated in male SD rats when administered via oral gavage and IV injection. For oral dosing, compound was formulated in 0.5% methylcellulose and administered at doses of 5 mg/kg (3 rats per dose level) and volume of 10 mL/kg. For IV dosing, compound was formulated in 5% DMSO/5% Solutol/90% saline and administered to 3 rats at a dose of 1 mg/kg and a volume of 5 mL/kg. The rats were fasted overnight before administration. Plasma samples were collected predose and at 0.5, 1, 3, 6, 9, 12, and 24 hours postdose. The samples were analyzed by LC/MS/MS and the concentration of test compound at each timepoint was determined by linear regression. Pharmacokinetic parameters were calculated from the plasma concentrations using Pheonix WinNonlin.

[12] = Metabolic stability in rat liver microsomes; format: in vitro ADME; conditions: Sprague Dawley
Method: as §1

[13] = test system: IFNγ-induced NO production in Raw 264.7 cells; assay: Nitric oxide assay: suppression of IFNγ-induced NO production (Griess nitrite, adjusted to live cell numbers); format: cell-based; conditions: Mus musculus, RAW264.7, 2 h pretreatment, IFNγ 10 ng/ml for 24 hours
Method: Raw 264.7 cells were seeded in 96-well plates at a density of 30, 000 cells per well in DMEM+10% FBS and incubated overnight. The next day, cell media was replaced by DMEM+2% FBS. Cells were pretreated with DMSO or test compounds (top dose 100 nM, 1:4 serial dilution, 10-point) for 2 hours and then treated with recombinant mouse IFNγ (R&D, Cat# 485-MI-100) at a final concentration of 10 ng/ml for 24 hours. Nitrite levels were measured in culture media as a surrogate for nitric oxide using the Griess Reagent System (Promega, Cat# G2930). Cell viability was determined using CellTiter Glo reagents (Promega, Cat#G7572). The nitrite levels were adjusted to live cell numbers and inhibition percentage was calculated. The inhibition percentage was then plotted against compound concentration, and IC50 values were calculated using four-parameter algorithm in Graphpad Prism.

CLint scaled at 1 μM [1] | half-life at 1 μM [1] | pIC50 [2] | pIC50 [3] | pIC50 [4] | pIC50 [5] | pIC50 [6] | pEC50 [7] | CLint scaled at 1 μM [8] | half-life at 1 μM [8] | CLint scaled at 1 μM [9] | half-life at 1 μM [9] | CLint scaled at 1 μM [10] | half-life at 1 μM [10] | C0 ([11]; IV (1 mg/kg)) | clearance ([11]; IV (1 mg/kg)) | half-life ([11]; IV (1 mg/kg)) | AUC(0-t) ([11]; IV (1 mg/kg)) | Cmax ([11]; Oral (5 mg/kg)) | half-life ([11]; Oral (5 mg/kg)) | Structure (SMILES) | other results
397 mL/min/kg | 3.1 min | 4.60 | 5.77 | 4.69 | < 4.30 | 5.66 | > 8.00 | 313 mL/min/kg | 6.4 min | 782 mL/min/kg | 2.4 min | 1750 mL/min/kg | 3.1 min | 500 ng/mL | 53 mL/min/kg | 72 min | 314 ng·h/mL | 177 ng/mL | 78 min | CC1(C)C(=O)C(C#N)=C[C@]2(C)C3=CC(=O)[C@@H]4[C@@H]5C[C@@](C)(C#N)CC[C@]5(C)CC[C@@]4(C)[C@]3(C)CC[C@@H]12 [Example 2, (2S,4aS,6aR,6bS,8aR,12aS,14aR,14bS)-2,4a,6a,6b,9,9,12a-heptamethyl-10,14-dioxo-1,2,3,4,4a,5,6,6a,6b,7,8,8a,9,10,12a,14,14a,14b-octadecahydropicene-2,11-dicarbonitrile] | AUC(0-t) ([11]; Oral (5 mg/kg)): 521 ng·h/mL; bioavailability [11]: 33.2%; CLint scaled at 1 μM [12]: 157 mL/min/kg; half-life at 1 μM [12]: 15.9 min
34.2 mL/min/kg | 36.5 min | 5.35 | 5.48 | 5.66 | < 4.30 | 5.80 | 7.00 to 8.00 | 101 mL/min/kg | 19.7 min | 104 mL/min/kg | 18.1 min | 147 mL/min/kg | 37.3 min | 747 ng/mL | 50.9 mL/min/kg | 192 min | 292 ng·h/mL | 51 ng/mL | 174 min | CC(=NC#N)NC[C@]12CCC(C)(C)C[C@H]1[C@H]1C(=O)C=C3[C@@]4(C)C=C(C#N)C(=O)C(C)(C)[C@@H]4CC[C@@]3(C)[C@]1(C)CC2 [Example 4, N′-cyano-N-(((4aS,6aR,6bS,8aR,12aS,14aR,14bS)-11-cyano-2,2,6a,6b,9,9,12a-heptamethyl-10,14-dioxo-1,3,4,5,6,6a,6b,7,8,8a,9,10,12a,14,14a,14b-hexadecahydropicen-4a(2H)-yl)methyl)acetimidamide] | AUC(0-t) ([11]; Oral (5 mg/kg)): 214 ng·h/mL; bioavailability [11]: 14.6%; CLint scaled at 1 μM [12]: 38.8 mL/min/kg; half-life at 1 μM [12]: 64.3 min; pIC50 [13]: > 8.00
96.2 mL/min/kg | 13 min | < 4.30 | 5.18 | < 4.30 | < 4.30 | 5.16 | 7.00 to 8.00 | 58.4 mL/min/kg | 34.2 min | 294 mL/min/kg | 6.4 min | 289 mL/min/kg | 19 min | 1300 ng/mL | 63.3 mL/min/kg | 84 min | 263 ng·h/mL | 32 ng/mL | 78 min | CC1(C)C(=O)C(C#N)=C[C@]2(C)C3=CC(=O)[C@@H]4[C@@H]5C[C@@](C)(c6nnc(C(N)=O)o6)CC[C@]5(C)CC[C@@]4(C)[C@]3(C)CC[C@@H]12 [Example 25, 5-((2S,4aS,6aR,6bS,8aR,12aS,14aR,14bS)-11-cyano-2,4a,6a,6b,9,9,12a-heptamethyl-10,14-dioxo-1,2,3,4,4a,5,6,6a,6b,7,8,8a,9,10,12a,14,14a,14b-octadecahydropicen-2-yl)-1,3,4-oxadiazole-2-carboxamide] | AUC(0-t) ([11]; Oral (5 mg/kg)): 102 ng·h/mL; bioavailability [11]: 7.8%; CLint scaled at 1 μM [12]: 87.2 mL/min/kg; half-life at 1 μM [12]: 28.6 min; pIC50 [13]: > 8.00
